Data on 40 compounds can be found in ChEMBL document CHEMBL1201862, “PubChem BioAssay data set” (2004).

Experiment [1] can be described thus: inhibitors of intracellular T. cruzi replication, confirmation, NIH3T3 host cells, beta-gal luminescence (AID 2044).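 Further: intracellular parasites grown in NIH/3T3 mouse fibroblasts as host cells; luminescent beta-galactosidase reporter signal from transgenic T. cruzi replicating inside host cells; inhibitors lower the luminescence signal.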 Format: functional, cell-based.
Experiment [2] can be described thus: cytotoxicity toward NIH3T3 fibroblasts, dose response, counter-screen, cell-based, ATP luminescence, mouse fibroblasts (AID 2010).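 Further: cells exposed to compound for about 90 hours before reading.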 Format: functional.
The next experiment deals with Streptococcus. Nature of the experiment: Group A Streptococcus viability loss, dose response, counter-screen for streptokinase expression inhibitor project, luminescence, BacTiterGlo (AID 1915).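 Further: potency for reduction of bacterial viability or growth.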 Format: functional, organism-based. (In general: A counterscreen serves to expose hits that act by an unwanted route or on another target.)
Experiment [3] deals with Streptococcus sp. 'group A'. Nature of the experiment: growth inhibition of control SK(-) GAS strain, dose response, counter-screen for streptokinase expression inhibitor project, luminescence, kanamycin, BacTiterGlo, confirmation (AID 1900). Format: functional, organism-based.
For a further experiment, the target named is T1, Streptokinase A (Streptococcus pyogenes serotype M1, UniProt P10520).
T1 sequence (P10520 whole entry): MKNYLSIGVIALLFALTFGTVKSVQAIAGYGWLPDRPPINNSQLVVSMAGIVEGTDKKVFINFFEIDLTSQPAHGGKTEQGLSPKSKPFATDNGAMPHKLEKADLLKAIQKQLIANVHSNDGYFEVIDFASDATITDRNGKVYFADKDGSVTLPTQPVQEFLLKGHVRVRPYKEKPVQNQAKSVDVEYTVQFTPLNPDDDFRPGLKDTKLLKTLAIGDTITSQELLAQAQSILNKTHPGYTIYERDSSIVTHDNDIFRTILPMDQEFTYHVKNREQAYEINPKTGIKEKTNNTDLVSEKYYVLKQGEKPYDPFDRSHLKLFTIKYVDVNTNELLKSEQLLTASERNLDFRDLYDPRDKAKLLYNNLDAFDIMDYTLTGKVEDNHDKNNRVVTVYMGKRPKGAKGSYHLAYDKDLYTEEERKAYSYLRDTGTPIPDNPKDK
Nature of the experiment: S. pyogenes streptokinase expression inhibitors, potency, dose response, plasminogen activation absorbance, OD405 (AID 1914).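 Further: secreted streptokinase activity via plasminogen activation per viability signal from cell pellet.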 It counts as functional, Streptococcus pyogenes M1 GAS.

In experiment [4] the target is T2, Corticotropin-releasing factor receptor 2/Corticotropin-releasing factor-binding protein (Homo sapiens, UniProt P24387+Q13324).
T2 sequence (Q13324 whole entry): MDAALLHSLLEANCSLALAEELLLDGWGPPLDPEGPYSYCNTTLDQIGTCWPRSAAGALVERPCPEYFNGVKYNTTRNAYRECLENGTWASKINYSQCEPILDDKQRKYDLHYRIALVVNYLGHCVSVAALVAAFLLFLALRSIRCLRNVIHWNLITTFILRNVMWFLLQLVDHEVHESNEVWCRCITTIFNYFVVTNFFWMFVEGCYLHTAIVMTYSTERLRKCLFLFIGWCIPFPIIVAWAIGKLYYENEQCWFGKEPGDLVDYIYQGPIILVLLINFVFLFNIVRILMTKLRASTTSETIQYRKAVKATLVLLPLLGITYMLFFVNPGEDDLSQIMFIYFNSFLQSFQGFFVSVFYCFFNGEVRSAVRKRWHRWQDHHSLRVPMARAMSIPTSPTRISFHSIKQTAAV
T2 sequence (P24387 whole entry): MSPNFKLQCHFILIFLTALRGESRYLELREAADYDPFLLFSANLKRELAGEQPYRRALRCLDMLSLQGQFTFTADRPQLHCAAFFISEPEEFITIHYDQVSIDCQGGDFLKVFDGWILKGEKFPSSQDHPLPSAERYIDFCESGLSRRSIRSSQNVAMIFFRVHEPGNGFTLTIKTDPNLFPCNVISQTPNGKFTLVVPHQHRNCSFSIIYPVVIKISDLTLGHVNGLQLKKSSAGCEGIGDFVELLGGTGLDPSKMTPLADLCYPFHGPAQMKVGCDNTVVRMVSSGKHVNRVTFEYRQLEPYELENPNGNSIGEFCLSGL
Nature of the experiment: activators of CRF receptor 2 with binding protein – uHTS hits, confirmation (AID 602473). As to conditions: read-out: EC50_Mean. It counts as functional.

For another experiment, the target named is T3, Cytochrome P450 1A2 (Homo sapiens, UniProt P05177).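 Further: PubChem cytochrome P450 panel assay, CYP1A2 panel member.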
T3 sequence (P05177 whole entry): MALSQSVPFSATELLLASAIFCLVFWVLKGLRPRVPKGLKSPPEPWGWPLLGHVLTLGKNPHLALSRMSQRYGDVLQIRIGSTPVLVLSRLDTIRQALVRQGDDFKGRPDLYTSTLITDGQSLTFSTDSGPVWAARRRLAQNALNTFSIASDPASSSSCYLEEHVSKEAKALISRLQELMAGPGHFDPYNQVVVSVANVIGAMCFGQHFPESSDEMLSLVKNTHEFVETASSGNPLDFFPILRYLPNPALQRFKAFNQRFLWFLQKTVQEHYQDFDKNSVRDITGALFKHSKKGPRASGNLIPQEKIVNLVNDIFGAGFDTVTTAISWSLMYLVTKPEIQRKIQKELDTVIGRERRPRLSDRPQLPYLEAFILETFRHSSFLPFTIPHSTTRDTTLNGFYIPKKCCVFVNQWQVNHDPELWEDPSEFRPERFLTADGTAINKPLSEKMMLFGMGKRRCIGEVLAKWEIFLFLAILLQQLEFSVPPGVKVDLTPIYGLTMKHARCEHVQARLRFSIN

Activity calls are given as the source filed them. For most assays here, no stated cut-off is given here; in the data, actives have a measured EC50 and inactives only a lower limit.

As for `CCOc1cccc2sc(N(CCCN(C)C)C(=O)c3ccc(S(=O)(=O)N(C)c4ccccc4)cc3)nc12`, the EC50 in experiment [1] is 1.52 µM (active); in experiment [2], > 60 µM (not active).

As to `Cn1c(Oc2ccccc2NCc2cc(Br)ccc2O)cc(=O)n(C)c1=O`, the EC50 in the experiment with Streptococcus was 16.1 µM (active); in experiment [3] it was 6.42 µM (active); on Streptokinase A it was > 150 µM (not active).

Consider `COc1ccc(NS(=O)(=O)c2ccc(C(=O)N3CCC(C)CC3)cc2)cc1`, for which the EC50 in experiment [4] is 9.87 µM (active).

Regarding `O=C(N[C@@H](c1ccccc1)[C@@H]1C[C@H]1C(=O)O)OCc1ccccc1`, at Cytochrome P450 1A2, the AC50 (usually the concentration at which the activity in the assay is half-maximal) is 20 µM (inconclusive).

Take `COc1ccc(NC(=O)CSc2ccc3nnc(-c4ccccn4)n3n2)c(OC)c1`: the EC50 (with Streptococcus; in experiment [3]; at Streptokinase A) was > 150 µM (not active) each time.

Take `CCCOc1ccc(CNCCCOCC)cc1OC`: the EC50 in experiment [1] is 0.344 µM (active); in experiment [2] it was > 60 µM (inconclusive).

On to `O=C1c2cccnc2C(=O)N1Cc1ccc(F)cc1`, for which the AC50 at Cytochrome P450 1A2 is 17.8 µM (inconclusive).

On to `COc1cc(CNCCc2ccccc2F)ccc1OCC(=O)N1CCCCC1`, for which the EC50 in experiment [1] was 0.393 µM (active); in experiment [2] it was > 30 µM (not active).

Take `Cc1ccccc1-n1nc(C(=O)c2cccs2)cc(-c2nc3ccccc3[nH]2)c1=N`: the EC50 is 3.73 µM (active) in the experiment with Streptococcus and 2.99 µM (active) in experiment [3].

For the compound `Cc1ccc(NC(S)=NC2CCSc3ccccc32)cc1C` (centres undefined), the values for the EC50 (in the experiment on Streptococcus; in experiment [3]) were > 150 µM (not active) and 20.6 µM (active), respectively.

As to `CCc1ccc(CN(Cc2cccnc2)C(=O)/C=C/c2ccc(OC)cc2)cc1`, the EC50 in experiment [1] is 0.375 µM (active); in experiment [2] it was > 30 µM (not active).

For `COc1ccccc1C(=O)NC(=S)Nc1ccc(N2CCCC2)cc1`, the EC50 in experiment [1] was 1.97 µM (active); in experiment [2] it was > 60 µM (not active).

`CN1C(=O)C(=Cc2ccc(N3CCOCC3)o2)C(=O)N(C)C1=S`: the EC50 in experiment [4] was 7.57 µM (active).

On to `COc1ccc(C(=O)Nc2c3c(nn2-c2ccc([N+](=O)[O-])cc2)CS(=O)(=O)C3)cc1`, for which the EC50 is > 150 µM (not active) with Streptococcus, 16.1 µM (active) in experiment [3] and > 150 µM (not active) on Streptokinase A.

Consider `CC1CC(C)CN(C2CCCCC2NS(=O)(=O)c2ccc(Cl)cc2)C1` (centres undefined), for which the EC50 in experiment [4] is 6.53 µM (active).

Consider `CCC(N=C(S)NC1CCCCC1)c1ccc(C(C)C)cc1` (centres undefined), for which the EC50 in the experiment with Streptococcus is 82 µM (active); in experiment [3], 10.7 µM (active).

For `CC1CCCC(C)N1S(=O)(=O)c1ccc(S(=O)(=O)NCCc2ccncc2)cc1` (centres undefined), the EC50 in experiment [1] was 2.83 µM (active); in experiment [2], > 60 µM (not active).

On to `Clc1ccc(C2C3=C(Nc4ncnn42)c2ccccc2CC3)cc1` (centres undefined), for which the EC50 in the experiment on Streptococcus was 43.2 µM (active); in experiment [3], 7.5 µM (active); on Streptokinase A it was > 150 µM (not active).

As for `COC(=O)C1=CN(Cc2ccc(OC)c(OC)c2)C=C(C(=O)OC)C1c1cccs1`, the EC50 in experiment [1] was 0.707 µM (active).

`Cc1c(-n2cc(C(=O)c3cc(F)ccc3O)cc(C#N)c2=O)c(=O)n(-c2ccccc2)n1C`: the EC50 in experiment [4] was > 53 µM (inactive).

Regarding `CCCCn1c(=N)c(S(=O)(=O)c2ccc(Br)cc2)cc2c(=O)n3cccc(C)c3nc21`, the EC50 in experiment [4] is > 53 µM (inactive).

With `COc1ccccc1C(c1nnnn1Cc1ccco1)N1CCN(c2cccc(C)c2C)CC1` (centres undefined), the EC50 in experiment [1] is 1.84 µM (active); in experiment [2], > 60 µM (not active).

Turning to `Cc1cc(C)nc(N=C(NCCc2c[nH]c3ccccc23)NC(=O)Nc2ccc(Cl)c(Cl)c2)n1`, the EC50 in experiment [1] is 1.62 µM (active); in experiment [2] it was > 60 µM (not active).

Consider `CCOc1ccc(NS(=O)(=O)c2cc(NC(=O)c3ccc(C)cc3)ccc2Cl)cc1`, for which the EC50 in the experiment with Streptococcus was 6.62 µM (active); in experiment [3] it was 12.5 µM (active).

As to `Cc1ccc(C(=O)N2CCOCC2)cc1S(=O)(=O)N1CCOCC1`, the EC50 (in the experiment on Streptococcus; in experiment [3]; on Streptokinase A) was > 150 µM (not active) throughout.

In the case of `N#Cc1c(NC(=S)NC(=O)c2ccccc2)sc2c1CCN(CCc1ccccc1)C2`, the EC50 was 0.717 µM (active) in experiment [1] and > 60 µM (not active) in experiment [2].

On to `Cc1ccc(NC(=S)NC2CCSc3ccccc32)cc1C` (centres undefined), for which, at Streptokinase A, the EC50 was 24.3 µM (active).

In the case of `Cc1cccc(NC(=O)C(=O)NNC(=O)c2ccc(C(C)(C)C)cc2)c1`, the EC50 with Streptococcus is 25.4 µM (active); in experiment [3], 9.34 µM (active); on Streptokinase A it was > 150 µM (not active).

With `COC(=O)[C@@]12CCCN1[C@H](c1ccc(-c3cccc(Cl)c3)c(OC)c1)[C@H]1C(=O)N(C)C(=O)[C@H]12`, the EC50 is > 150 µM (not active) in the experiment with Streptococcus, 105 µM (active) in experiment [3] and > 150 µM (not active) at Streptokinase A.

Regarding `C=CCn1c(Oc2ccc(C(=O)OC)cc2)nc2c1c(=O)n(C)c(=O)n2C`, the EC50 in the experiment on Streptococcus is > 150 µM (not active); in experiment [3], 12.4 µM (active); at Streptokinase A, > 150 µM (not active).

On to `O=[N+]([O-])c1cc(-c2n[nH]c(-c3ccccc3)n2)cc([N+](=O)[O-])c1`, for which the EC50 in experiment [1] is 0.475 µM (active); in experiment [2] it was > 60 µM (not active).

As to `O=c1[nH]c(=O)c2cc([N+](=O)[O-])cc([N+](=O)[O-])c2[nH]1`, the EC50 in experiment [1] is 1.04 µM (active); in experiment [2], > 30 µM (not active).

Turning to `COc1ccc(CN(C(=O)c2ccc(-c3ccccc3)[nH]2)C(C(=O)NC(C)(C)C)c2ccncc2)cc1` (centres undefined), the EC50 was 0.706 µM (active) in experiment [1] and > 60 µM (not active) in experiment [2].

As to `CN1CCN(c2ncnc3sc(-c4ccccc4)cc23)CC1`, the EC50 in experiment [1] is 0.314 µM (active); in experiment [2], > 60 µM (not active).

In the case of `CCOC(=O)N1CCN(CC(O)c2ccc3cc[nH]c3c2)CC1` (centres undefined), the EC50 in experiment [4] is > 53 µM (inactive).

`Cc1ccc2cc(/C=N/NC(=O)[C@H]3C[C@@H]3c3ccccc3)c(Cl)nc2c1`: the figures for the EC50 in experiment [1] and in experiment [2] were 2.26 µM (active) and > 60 µM (not active), respectively.

With `CCOc1ccc(C)cc1S(=O)(=O)NC1CCCCCC1`, the EC50 (with Streptococcus; in experiment [3]; on Streptokinase A) was > 150 µM (not active) throughout.

As to `CC1(C)CC(=O)c2c(n(S(=O)(=O)c3ccccc3)c3ccc(NS(=O)(=O)c4ccccc4)cc23)C1`, the EC50 in experiment [1] is 1.03 µM (active); in experiment [2], 10.6 µM (active).

As for `COc1ccc(/C=C/c2ccncc2)cc1`, the EC50 in experiment [1] was 0.529 µM (active); in experiment [2] it was > 60 µM (not active).

With `N#Cc1ccccc1Cn1cc(/C=N/Nc2ccc([N+](=O)[O-])cn2)c2ccccc21`, the values for the EC50 in experiment [1] and in experiment [2] were 1.94 µM (active) and > 60 µM (inconclusive), respectively.
